Measured values: patent US20250129088A1, “CEREBLON E3 UBIQUITIN LIGASE INHIBITOR” (Gan & Lee Pharmaceuticals Co., Ltd., priority 2022, published 2025)

Key:
Type in all cases: cell-based
[1] = system: MV-4-11 cells; experiment: MV-4-11 cell proliferation inhibition, CCK-8; settings: Homo sapiens, MV4-11, 96 h, MV-4-11, 4 days
Protocol: The complete medium required for MV-4-11 cells is IMDM (ATCC, Product number: 30-2005) basal medium containing 10% fetal bovine serum. MV-4-11 cells were seeded in a 96-well plate at a density of 7,500 cells/well, and different concentrations of the compound of the present invention and positive control samples Alisertib (source: Bide Pharmaceuticals), Palbociclib (source: Bide Pharmaceuticals), Ibrutinib (source Bide Pharmaceuticals) treated cells. The cells were incubated in a 37° C., 5% CO2 cell incubator for 4 days. Cell viability was detected using the CCK-8 kit (Beyotime, Product number: C0040) according to the manufacturer's instructions. According to the inhibition rate, GraphPad Prism software was used to calculate the IC50 value of each compound for 4 days, and the results are shown in Table 6-8.

[2] = system: LNCaP FGC cells; experiment: LNCaP FGC cell proliferation inhibition, CCK-8; settings: Homo sapiens, 96 h, 4 days
Description: The complete medium required for LNCaP FGC cells is RPMI 1640 (ATCC, Product number: 30-2001) basal medium containing 10% fetal calf serum. […] Cell viability was detected using the CCK-8 kit (Beyotime, Product number: C0040) according to the manufacturer's instructions.

[3] = system: VCaP cells; experiment: VCaP cell proliferation inhibition, CCK-8; settings: Homo sapiens, 168 h, 7 days
Description: The complete medium required for VCaP cells is DMEM high glucose (Gibco, Product number: 11995-065) basal medium containing 10% fetal bovine serum. […] Cell viability was detected using the CCK-8 kit (Beyotime, Product number: C0040) according to the manufacturer's instructions.

[4] = Table 6, positive control Alisertib
[5] = Table 7, positive control Palbociclib

Question: COc1cc(Nc2ncc3c(n2)-c2ccc(Cl)cc2C(c2c(F)cccc2OC)=NC3)ccc1C(=O)NCCOCCC(=O)N1CCC2(CCc3cc4c(cc3O2)C(=O)N(C2CCC(=O)NC2=O)C4=O)CC1 (centres unmarked) [PROTAC 5, 4-((9-chloro-7-(2-fluoro-6-methoxyphenyl)-5H-benzo[c]pyrimido[4,5-e]azepine-2-yl)amino)-N-(2-(3-(7′-(2,6-dioxopiperidin-3-yl)-6′,8′-dioxo-4′,6′,7′,8′-tetrahydro-3′H-spiro[piperidine-4,2′-pyrano[2,3-f]isoindol]-1-yl)-3-oxopropoxy)ethyl)-2-methoxybenzamide] was tested. Which IC50 [1, 4] did it give?
Answer: Its IC50 is 0.42 µM.

Question: CC1(C)C(=O)N(c2ccc(C#N)c(C(F)(F)F)c2)C(=S)N1c1ccc(C(=O)N2CCC(CN3CCC4(CCc5cc6c(cc5O4)CN(C4CCC(=O)NC4=O)C6=O)CC3)CC2)c(F)c1 (centres unmarked) [PROTAC 72] was tested. Which IC50 [2] did it give?
Answer: The IC50 was 5.34 µM.

Question: What about the IC50 [3] of the same compound?
Answer: The IC50 was 7.4 µM.

Question: How did the IC50 [1, 4] turn out when COc1cc(Nc2ncc3c(n2)-c2ccc(Cl)cc2C(c2c(F)cccc2OC)=NC3)ccc1C(=O)N1CCC2(CC1)COc1cc3c(cc1O2)CN(C1CCC(=O)NC1=O)C3=O (centres unmarked) [PROTAC 2, 3-(1-(4-((9-chloro-7-(2-fluoro-6-methoxyphenyl)-5H-benzo[c]pyrimido[4,5-e]azepine-2-yl)amino)-2-methoxybenzoyl)-6′-oxo-6′,8′-dihydro-3′H,7′H-spiro[piperidine-4,2′-[1,4]dioxino[2,3-f]isoindole]-7′-yl)piperidine-2,6-dione] was run?
Answer: The IC50 was 0.081 µM.

Question: For N#Cc1ccc(O[C@H]2CC[C@H](NC(=O)c3ccc(N4CC(N5CCC6(CC5)Cc5cc7c(cc5O6)C(=O)N(C5CCC(=O)NC5=O)C7=O)C4)nn3)CC2)cc1Cl (some centres unmarked) [PROTAC 67, N-((1r,4r)-4-(3-chloro-4-cyanophenoxy)cyclohexyl)-6-(3-(6-(2,6-dioxypiperidin-3-yl)-5,7-dioxo-3,5,6,7-tetrahydrospiro[furo[2,3-f]isoindole-2,4′-piperidin]-1′-yl)azetidin-1-yl)pyridazine-3-carboxamide], which IC50 [2] is on record?
Answer: The IC50 was 6.1 µM.

Question: What about the IC50 [3] of the same compound?
Answer: The IC50 was 6.5 µM.

Question: With COC1(CN2CC3(CCc4cc5c(cc4O3)CN(C3CCC(=O)NC3=O)C5=O)C2)CCN(C(=O)c2ccc(N3C(=S)N(c4ccc(C#N)c(C(F)(F)F)c4)C(=O)C3(C)C)cc2F)CC1 (centres unmarked) [PROTAC 76] as the compound, how does the IC50 [2] read?
Answer: The IC50 was 3.24 µM.

Question: What about the IC50 [3] of the same compound?
Answer: The IC50 was 0.35 µM.

Question: Which results are given for N#Cc1ccc(O[C@H]2CC[C@H](NC(=O)c3ccc(N4CCC5(CC4)CC(N4CCC6(CC4)COc4cc7c(cc46)C(=O)N(C4CCC(=O)NC4=O)C7=O)C5)nn3)CC2)cc1Cl (some centres unmarked) [PROTAC 63]?
Answer: IC50 [2]: 0.17 µM; IC50 [3]: 0.051 µM

Question: For CC1(C)C(=O)N(c2ccc(C#N)c(C(F)(F)F)c2)C(=S)N1c1ccc(C(=O)N2CC3(CC(N4CCC5(CC4)COc4cc6c(cc45)C(=O)N(C4CCC(=O)NC4=O)C6=O)C3)C2)c(F)c1 (centres unmarked) [PROTAC 79, 4-(3-(4-(6-(6-(2,6-dioxopiperidin-3-yl)-5,7-dioxo-6,7-dihydro-2H,5H-spiro[furo[2,3-f]isoindole-3,4′-piperidin]-1′-yl)-2-azaspiro[3.3]heptane-2-carbonyl)-3-fluorophenyl)-4,4-dimethyl-5-oxo-2-thioimidazolidin-1-yl)-2-(trifluoromethyl)benzonitrile], which IC50 [3] is on record?
Answer: Its IC50 is 4.09 µM.

Question: For N#Cc1ccc(O[C@H]2CC[C@H](NC(=O)c3ccc(N4CCC5(CC4)CC(N4CCC6(CCc7cc8c(cc7O6)C(=O)N(C6CCC(=O)NC6=O)C8=O)CC4)C5)nn3)CC2)cc1Cl (some centres unmarked) [PROTAC 61], which IC50 [2] is on record?
Answer: Its IC50 is 2.2 µM.

Question: And the IC50 [3]?
Answer: The IC50 was 0.08 µM.

Question: How did the IC50 [2] turn out when N#Cc1ccc(O[C@H]2CC[C@H](NC(=O)c3ccc(N4CCC(CN5CCC6(CC5)COc5cc7c(cc5O6)CN(C5CCC(=O)NC5=O)C7=O)CC4)nn3)CC2)cc1Cl (some centres unmarked) [PROTAC 65] was run?
Answer: Its IC50 is 2.37 µM.

Question: And the IC50 [3]?
Answer: The IC50 was 0.0011 µM.

Question: With CC1(C)C(=O)N(c2ccc(C#N)c(C(F)(F)F)c2)C(=S)N1c1ccc(C(=O)N2CCC(CN3CCC4(CCc5cc6c(cc5O4)C(=O)N(C4CCC(=O)NC4=O)C6=O)CC3)CC2)c(F)c1 (centres unmarked) [PROTAC 84] as the compound, how does the IC50 [3] read?
Answer: Its IC50 is 3.8 µM.

Question: Which IC50 [2] does the source give for CC1(C)C(=O)N(c2ccc(C#N)c(C(F)(F)F)c2)C(=S)N1c1ccc(C(=O)N2CC3(CCC(N4CCC5(CC4)COc4cc6c(cc4C5)C(=O)N(C4CCC(=O)NC4=O)C6=O)CC3)C2)c(F)c1 (centres unmarked) [PROTAC 73, 4-(3-(4-(7-(7′-(2,6-dioxopiperidin-3-yl)-6′,8′-dioxo-4′,6′,7′,8′-tetrahydro-2′H-spiro[piperidin-4,3′-pyrano[2,3-f]isoindol]-1-yl)-2-azaspiro[3.5]nonane-2-carbonyl)-3-fluorophenyl)-4,4-dimethyl-5-oxo-2-thioimidazolidin-1-yl)-2-(trifluoromethyl)benzonitrile] here?
Answer: The IC50 was 4.53 µM.

Question: What about the IC50 [3] of the same compound?
Answer: Its IC50 is 2.49 µM.

Question: Which IC50 [2] does the source give for N#Cc1ccc(O[C@H]2CC[C@H](NC(=O)c3ccc(N4CC(N5CCC6(CC5)COc5cc7c(cc5C6)C(=O)N(C5CCC(=O)NC5=O)C7=O)C4)nn3)CC2)cc1Cl (some centres unmarked) [PROTAC 64, N-((1r,4r)-4-(3-chloro-4-cyanophenoxy)cyclohexyl)-6-(3-(7′-(2,6-dioxopiperidin-3-yl)-6′,8′-dioxo-4′,6′,7′,8′-tetrahydro-2′H-spiro[piperidine-4,3′-pyran[2,3-f]isoindole]-1-yl)azetidin-1-yl]pyridazine-3-carboxamide] here?
Answer: The IC50 was 0.13 µM.

Question: And the IC50 [3]?
Answer: The IC50 was 0.96 µM.

Question: For COc1cc(Nc2ncc3c(n2)-c2ccc(Cl)cc2C(c2c(F)cccc2OC)=NC3)ccc1C(=O)NCCOCCC(=O)N1CCC2(CC1)COc1cc3c(cc1C2)C(=O)N(C1CCC(=O)NC1=O)C3=O (centres unmarked) [PROTAC 6, 4-((9-chloro-7-(2-fluoro-6-methoxyphenyl)-5H-benzo[c]pyrimido[4,5-e]azepine-2-yl)amino)-N-(2-(3-(7′-(2,6-dioxopiperidin-3-yl)-6′,8′-dioxo-4′,6′,7′,8′-tetrahydro-2′H-spiro[piperidine-4,3′-pyrano[2,3-f]isoindol]-1-yl)-3-oxopropoxy)ethyl)-2-methoxybenzamide], which IC50 [1, 4] is on record?
Answer: The IC50 was 0.32 µM.

Question: For CC1(C)C(=O)N(c2ccc(C#N)c(C(F)(F)F)c2)C(=S)N1c1ccc(C(=O)N2CC(CN3CCC4(CCc5cc6c(cc5O4)C(=O)N(C4CCC(=O)NC4=O)C6=O)CC3)C2)c(F)c1 (centres unmarked) [PROTAC 71], which IC50 [3] is on record?
Answer: The IC50 was 4.57 µM.

Question: Which IC50 [2] does the source give for COC1(CN2CC3(COc4cc5c(cc4C3)C(=O)N(C3CCC(=O)NC3=O)C5=O)C2)CCN(C(=O)c2ccc(N3C(=S)N(c4ccc(C#N)c(C(F)(F)F)c4)C(=O)C3(C)C)cc2F)CC1 (centres unmarked) [PROTAC 75] here?
Answer: The IC50 was 0.53 µM.

Question: And the IC50 [3]?
Answer: Its IC50 is 0.17 µM.

Question: How did the IC50 [2] turn out when CC1(C)C(=O)N(c2ccc(C#N)c(C(F)(F)F)c2)C(=S)N1c1ccc(C(=O)N2CCC(CN3CCC4(CC3)COc3cc5c(cc3C4)C(=O)N(C3CCC(=O)NC3=O)C5=O)CC2)c(F)c1 (centres unmarked) [PROTAC 69] was run?
Answer: Its IC50 is 3.39 µM.

Question: And the IC50 [3]?
Answer: The IC50 was 4.26 µM.

Question: Which IC50 [1, 5] does the source give for CC(=O)c1c(C)c2cnc(Nc3ccc(N4CCN(CCOCCC(=O)N5CCC6(CCc7cc8c(cc7O6)C(=O)N(C6CCC(=O)NC6=O)C8=O)CC5)CC4)cn3)nc2n(C2CCCC2)c1=O (centres unmarked) [PROTAC 38, 1-(3-(2-(4-(6-((6-acetyl-8-cyclopentyl-5-methyl-7-oxo-7,8-dihydropyridone[2,3-d]pyrimidin-2-yl)amino)pyridin-3-yl)piperazin-1-yl)ethoxy)propionyl)-7′-(2,6-dioxopiperidin-3-yl)-3′,4′-dihydro-6′H-spiro[piperidine-4,2′-pyrano[2,3-f]isoindole]-6′,8′(7′H)-dione] here?
Answer: The IC50 was 5.03 µM.

Question: With CC1(C)C(=O)N(c2ccc(C#N)c(C(F)(F)F)c2)C(=S)N1c1ccc(C(=O)N2CC(N3CCC4(CC3)COc3cc5c(cc34)C(=O)N(C3CCC(=O)NC3=O)C5=O)C2)c(F)c1 (centres unmarked) [PROTAC 81, 4-(3-(4-(3-(6-(2,6-dioxopiperidin-3-yl)-5,7-dioxo-6,7-dihydro-2H,5H-spiro[furo[2,3-f]isoindole-3,4′-piperidin]-1′-yl)azetidine-1-carbonyl)-3-fluorophenyl)-4,4-dimethyl-5-oxo-2-thioimidazolidin-1-yl)-2-(trifluoromethyl)benzonitrile] as the compound, how does the IC50 [3] read?
Answer: The IC50 was 9.51 µM.

Question: For CC1(C)C(=O)N(c2ccc(C#N)c(C(F)(F)F)c2)C(=S)N1c1ccc(C(=O)N2CCC(F)(CN3CCC4(CCc5cc6c(cc5O4)C(=O)N(C4CCC(=O)NC4=O)C6=O)CC3)CC2)c(F)c1 (centres unmarked) [PROTAC 82], which IC50 [3] is on record?
Answer: The IC50 was 1.3 µM.

Question: How did the IC50 [1, 5] turn out when CC(=O)c1c(C)c2cnc(Nc3ccc(N4CCNCC4)cn3)nc2n(C2CCCC2)c1=O [Palbociclib, reference compound] was run?
Answer: Its IC50 is 2.09 µM.

Question: How did the IC50 [1, 4] turn out when COc1cc(Nc2ncc3c(n2)-c2ccc(Cl)cc2C(c2c(F)cccc2OC)=NC3)ccc1C(=O)NCCOCCC(=O)N1CC2(CCc3cc4c(cc3O2)C(=O)N(C2CCC(=O)NC2=O)C4=O)C1 (centres unmarked) [PROTAC 8, 4-((9-chloro-7-(2-fluoro-6-methoxyphenyl)-5H-benzo[c]pyrimido[4,5-e]azepine-2-yl)amino)-N-(2-(3-(7′-(2,6-dioxopiperidin-3-yl)-6′,8′-dioxo-4′,6′,7′,8′-tetrahydro-3′H-spiro[azetidine-3,2′-pyrano[2,3-f]isoindol]-1-yl)-3-oxopropoxy)ethylbase)-2-methoxybenzamide] was run?
Answer: The IC50 was 0.38 µM.

Question: With CC1(C)C(=O)N(c2ccc(C#N)c(C(F)(F)F)c2)C(=S)N1c1ccc(C(=O)N2CCC(N3CCC4(CC3)COc3cc5c(cc3C4)C(=O)N(C3CCC(=O)NC3=O)C5=O)CC2)c(F)c1 (centres unmarked) [PROTAC 78, 4-(3-(4-(4-(7′-(2,6-dioxopiperidin-3-yl)-6′,8′-dioxo-4′,6′,7′,8′-tetrahydro-2′H-spiro[piperidine-4,3′-pyrano[2,3-f]isoindol]-1-yl)piperidine-1-carbonyl)-3-fluorophenyl)-4,4-dimethyl-5-oxo-2-thioimidazolidin-1-yl)-2-(trifluoromethyl)benzonitrile] as the compound, how does the IC50 [3] read?
Answer: Its IC50 is 2.7 µM.
